Assay results as given in EP0446748A2, “Use of perylenedyes for the preparation of write, print or copying materials” (priority 1990, dated 1991).

Assay: Solubility of the dyes in organic solvent, determined after one week of the solution in contact with the solid dye with occasional shaking
Format: physicochemical
Conditions: 10080 min; for Löslichkeit (n-Heptan) / Löslichkeit (CHCl₃): temperature not given; for Löslichkeit (CHCl₃/20^oC) / Löslichkeit (n-Heptan/20^oC): 20 °C
From the text: Die Perylenfarbstoffe werden aus technischen Perylen-3,4:9,10-tetracarbonsäurebisanhydrid (2,55 mmol), dem entsprechenden primären Amin oder dem Aminhydrochlorid (6 mmol) und Imidazol (5 g) dargestellt und werden entsprechend der Literatur gereinigt (siehe z.B. Chem. Ber. 118 4641 (1985) und Chem. Ber. 121 225 (1988)). Die Angaben beziehen sich auf die Darstellung von hochreine Farbstoffen. Die Perylenfarbstoffe der allgemeinen Formel I mit R¹ = R² = Hexyl, Dodecyl, Octadecyl, Cycloalkyl bis zu Cyclopentadecyl und sec-Alkyl bis 1-Hexylheptyl sind in Chem. Ber. 121 225 (1988) beschriebn. Die Löslichkeiten der Farbstoffe sind nach einer Woche der Lösung mit dem festen Farbstoff bei gelegentlichem Umschütteln bestimmt worden.

CCCCCCCCCC(CCCCCCCCC)N1C(=O)c2ccc3c4ccc5c6c(ccc(c7ccc(c2c37)C1=O)c64)C(=O)N(C(CCCCCCCCC)CCCCCCCCC)C5=O [N,N'-Di(1-nonyldecyl)perylen-3,4:9,10-bis(dicarboximid)]
Löslichkeit (n-Heptan): 35 g/100 ml

CCCCCCCCCCCCCCCCC(CCCCCCCCCCCCCCCC)N1C(=O)c2ccc3c4ccc5c6c(ccc(c7ccc(c2c37)C1=O)c64)C(=O)N(C(CCCCCCCCCCCCCCCC)CCCCCCCCCCCCCCCC)C5=O [N,N'-Di(1-hexadecylheptadecyl)perylen-3,4:9,10-bis(dicarboximid)]
Löslichkeit (n-Heptan): 0.13 g/100 ml

CCCCCCCCCCCCCCCCCCN1C(=O)c2ccc3c4ccc5c6c(ccc(c7ccc(c2c37)C1=O)c64)C(=O)N(CCCCCCCCCCCCCCCCCC)C5=O [N,N'-Di(n-octadecyl)perylen-3,4:9,10-bis(dicarboximid)]
Löslichkeit (CHCl₃): 1,8 mg/100 ml

CCCN1C(=O)c2ccc3c4ccc5c6c(ccc(c7ccc(c2c37)C1=O)c64)C(=O)N(CCC)C5=O [N,N'-Di(1-Propyl)perylen-3,4:9,10-bis(dicarboximid)]
Löslichkeit (CHCl₃/20^oC): 5,3 mg/100 ml

CCCCCN1C(=O)c2ccc3c4ccc5c6c(ccc(c7ccc(c2c37)C1=O)c64)C(=O)N(CCCCC)C5=O [N,N'-Di(1-pentyl)perylen-3,4:9,10-bis(dicarboximid)]
Löslichkeit (CHCl₃/20^oC): 47 mg/100 ml

O=C1c2ccc3c4ccc5c6c(ccc(c7ccc(c2c37)C(=O)N1C1CCCCCCCCCCCCCCC1)c64)C(=O)N(C1CCCCCCCCCCCCCCC1)C5=O [N,N'-Dicyclohexadecylperylen-3,4:9,10-bis(dicarboximid)]
Löslichkeit (CHCl₃): 0.56 g/100ml

CCCCCCCCCCCCCCCCN1C(=O)c2ccc3c4ccc5c6c(ccc(c7ccc(c2c37)C1=O)c64)C(=O)N(CCCCCCCCCCCCCCCC)C5=O [N,N'-Di(n-hexadecyl)perylen-3,4:9,10-bis(dicarboximid)]
Löslichkeit (CHCl₃): 6.0 mg/100 ml

CCCCCCCCCN1C(=O)c2ccc3c4ccc5c6c(ccc(c7ccc(c2c37)C1=O)c64)C(=O)N(CCCCCCCCC)C5=O [N,N'-Di(n-nonyl)perylen-3,4:9,10-bis(dicarboximid)]
Löslichkeit (CHCl₃/20^oC): 11 mg/100 ml

CCCCCCCC(CCCCCCC)N1C(=O)c2ccc3c4ccc5c6c(ccc(c7ccc(c2c37)C1=O)c64)C(=O)N(C(CCCCCCC)CCCCCCC)C5=O [N,N'-Di(1-heptyloctyl)perylen-3,4:9,10-bis(dicarboximid)]
Löslichkeit (n-Heptan/20^oC): 0.59 g/100ml

CCCCCCCCCCCCC(CCCCCCCCCCCC)N1C(=O)c2ccc3c4ccc5c6c(ccc(c7ccc(c2c37)C1=O)c64)C(=O)N(C(CCCCCCCCCCCC)CCCCCCCCCCCC)C5=O [N,N'-Di(1-dodecyltridecyl)perylen-3,4:9,10-bis(dicarboximid)]
Löslichkeit (n-Heptan): 67 mg/100 ml

CCCCCCCCCCC(CCCCCCCCCC)N1C(=O)c2ccc3c4ccc5c6c(ccc(c7ccc(c2c37)C1=O)c64)C(=O)N(C(CCCCCCCCCC)CCCCCCCCCC)C5=O [N,N'-Di(1-decylundecyl)Perylen-3,4:9,10-bis(dicarboximid)]
Löslichkeit (n-Heptan): 4.8 g/100 ml

CCCCN1C(=O)c2ccc3c4ccc5c6c(ccc(c7ccc(c2c37)C1=O)c64)C(=O)N(CCCC)C5=O [N,N'-Di(1-butyl)perylen-3,4:9,10-bis(dicarboximid)]
Löslichkeit (CHCl₃/20^oC): 8,9 mg/100 ml

CCCCCCCCCCCCCCCCCCC(CCCCCCCCCCCCCCCCCC)N1C(=O)c2ccc3c4ccc5c6c(ccc(c7ccc(c2c37)C1=O)c64)C(=O)N(C(CCCCCCCCCCCCCCCCCC)CCCCCCCCCCCCCCCCCC)C5=O [N,N'-Di(1-octadecylnonadecyl)perylen-3,4:9,10-bis(dicarboximid)]
Löslichkeit (n-Heptan): 26 mg/100 ml

CCCCCCCCC(CCCCCCCC)N1C(=O)c2ccc3c4ccc5c6c(ccc(c7ccc(c2c37)C1=O)c64)C(=O)N(C(CCCCCCCC)CCCCCCCC)C5=O [N,N'-Di(1-octylnonyl)perylen-3,4:9,10-bis(dicarboximid)]
Löslichkeit (n-Heptan/20^oC): 0.30 g/100ml

CCCCCCCCCCCCCCN1C(=O)c2ccc3c4ccc5c6c(ccc(c7ccc(c2c37)C1=O)c64)C(=O)N(CCCCCCCCCCCCCC)C5=O [N,N'-Di(n-tetradecyl)perylen-3,4:9,10-bis(dicarboximid)]
Löslichkeit (CHCl₃): 5.4 mg/100 ml
